37 compounds from patent publication US20200079766A1, “MONOCYCLIC OGA INHIBITOR COMPOUNDS” (Janssen Pharmaceutica NV, priority 2016, published 2020) can be followed below.

The assay concerns the target T1, recombinant human Meningioma Expressed Antigen 5 (MGEA5), also referred to as O-GlcNAcase (OGA) (Homo sapiens, UniProt O60502).
T1 construct: Full length OGA enzyme was purchased at OriGene (cat # TP322411); purchased OriGene TP322411
T1 sequence (O60502 1-916): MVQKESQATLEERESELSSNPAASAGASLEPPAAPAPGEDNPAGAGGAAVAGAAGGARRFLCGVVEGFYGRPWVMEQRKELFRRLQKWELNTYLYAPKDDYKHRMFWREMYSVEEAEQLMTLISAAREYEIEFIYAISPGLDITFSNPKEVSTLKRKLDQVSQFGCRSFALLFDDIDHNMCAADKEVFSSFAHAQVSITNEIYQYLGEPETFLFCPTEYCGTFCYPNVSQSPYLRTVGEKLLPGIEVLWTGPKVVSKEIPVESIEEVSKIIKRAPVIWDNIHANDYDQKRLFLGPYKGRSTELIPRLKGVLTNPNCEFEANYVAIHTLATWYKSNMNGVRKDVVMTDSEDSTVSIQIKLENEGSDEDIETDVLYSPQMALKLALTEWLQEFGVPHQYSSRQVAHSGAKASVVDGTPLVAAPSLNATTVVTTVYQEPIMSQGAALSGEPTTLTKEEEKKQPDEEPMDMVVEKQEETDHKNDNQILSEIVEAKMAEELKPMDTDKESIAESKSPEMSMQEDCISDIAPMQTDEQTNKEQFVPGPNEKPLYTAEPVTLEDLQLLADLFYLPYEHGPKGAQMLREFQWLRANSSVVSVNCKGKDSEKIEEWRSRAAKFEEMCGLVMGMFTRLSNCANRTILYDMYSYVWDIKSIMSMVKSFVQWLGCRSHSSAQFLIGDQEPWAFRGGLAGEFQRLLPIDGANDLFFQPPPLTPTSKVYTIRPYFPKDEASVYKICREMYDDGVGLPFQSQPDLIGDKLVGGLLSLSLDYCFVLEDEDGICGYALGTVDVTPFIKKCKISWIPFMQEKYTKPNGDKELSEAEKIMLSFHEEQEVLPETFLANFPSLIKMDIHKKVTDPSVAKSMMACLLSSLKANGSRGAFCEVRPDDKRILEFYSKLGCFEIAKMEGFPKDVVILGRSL
Kind of assay: OGA biochemical assay: inhibition of FM-GlcNAc hydrolysis, fluorescence; protocol A (10 nM OGA, 1 h) or protocol B (2 nM OGA, 6 h). Particulars: for IC50: read-out: Enzymatic hOGA, pIC50 (converted). The source says:
The assay is based on the inhibition of the hydrolysis of fluorescein mono-3-D-N-Acetyl-Glucosamine (FM-GlcNAc) (Mariappa et al. 2015, Biochem J 470:255) by the recombinant human Meningioma Expressed Antigen 5 (MGEA5), also referred to as O-GlcNAcase (OGA). The hydrolysis FM-GlcNAc (Marker Gene technologies, cat # M1485) results in the formation of ß-D-N-glucosamineacetate and fluorescein. The fluorescence of the latter can be measured at excitation wavelength 485 nm and emission wavelength 538 nm. An increase in enzyme activity results in an increase in fluorescence signal. Full length OGA enzyme was purchased at OriGene (cat # TP322411). The enzyme was stored in 25 mM Tris.HCl, pH 7.3, 100 mM glycine, 10% glycerol at −20° C. Thiamet G and GlcNAcStatin were tested as reference compounds (Yuzwa et al. 2008 Nature Chemical Biology 4:483; Yuzwa et al. 2012 Nature Chemical Biology 8:393). The assay was performed in 200 mM Citrate/phosphate buffer supplemented with 0.005% Tween-20. 35.6 g Na2HPO42H2O (Sigma, # C0759) were dissolved in 1 L water to obtain a 200 mM solution. 19.2 g citric acid (Merck, #1.06580) was dissolved in 1 L water to obtain a 100 mM solution. pH of the sodiumphosphate solution was adjusted with the citric acid solution to 7.2. The buffer to stop the reaction consists of a 500 mM Carbonate buffer, pH 11.0. 734 mg
FM-GlcNAc were dissolved in 5.48 mL DMSO to obtain a 250 mM solution and was stored at −20° C. OGA was used at a 10 nM (protocol A) or 2 nM (protocol B) concentration and FM-GlcNAc at a 100 uM final concentration. Dilutions were prepared in assay buffer.
50 nl of a compound dissolved in DMSO was dispensed on Black Proxiplate™ 384 Plus Assay plates (Perkin Elmer, #6008269) and 3 μl fl-OGA enzyme mix added subsequently. Plates were pre-incubated for 60 min at room temperature and then 2 μl FM-GlcNAc substrate mix added. […] Plates were briefly centrifuged for 1 min at 1000 rpm and incubate at room temperature for 1 h (10 nM OGA, protocol A) or 6 h (2 nM OGA, protocol B). To stop the reaction 5 μl STOP buffer were added and plates centrifuge again 1 min at 1000 rpm. Fluorescence was quantified in the Thermo Scientific Fluoroskan Ascent or the PerkinElmer EnVision with excitation wavelength 485 nm and emission wavelength 538 nm.
For analysis a best-fit curve is fitted by a minimum sum of squares method. From this an IC50 value and Hill coefficient was obtained. High control (no inhibitor) and low control (saturating concentrations of standard inhibitor) were used to define the minimum and maximum values.

The mark [1] stands for this setting: Enzymatic protocol B (2 nM OGA, 6 h).
Where [2] appears, read: Enzymatic protocol A (10 nM OGA, 1 h).

Molecules are shown by their SMILES. Like-named read-outs stand apart in the source and are kept apart here.

One may read the Emax as the greatest response seen or fitted, relative to the assay's reference.

Consider `Cc1cc(C[C@H]2CCN(C(C)c3nc4ccccc4[nH]3)C2)cc(C)n1` (mixture of isomers) [compound 78], for which, under setting [1], the maximal response (Emax) was 8.78% and the IC50 was above 10000 nM.
For `Cc1cc(C[C@H]2CCN(C(C)c3cc4ccccc4n3C)C2)cc(C)n1` (mixture of isomers) [compound 94], under setting [1], the maximum response (Emax) turned out to be 30.7% and the IC50 was above 10000 nM.
In the case of `CC(=O)Nc1ncc(CN2CCCC(COc3cc(C)nc(C)c3)C2)[nH]1` (racemic) [compound 132], under setting [1], the Emax is 91.9% and the IC50 was 1230 nM.
For the compound `Cc1cc(CC2CCCN(C(C)c3nc4ccccc4[nH]3)C2)cc(C)n1` (racemic) [compound 149], under setting [1], the Emax stood at 67.6% and the IC50 was 5370 nM.
For `Cc1cc(OCC2(F)CCCN(Cc3ccc4nccnc4c3)C2)cc(C)n1` (racemic) [compound 157] the same measures were 69% and 2400 nM.
Take `CC(=O)Nc1ncc(CN2C[C@@H](F)C[C@@H](COc3cc(C)nc(C)n3)C2)s1` (racemic) [compound 164]: under setting [1], the maximum response (Emax) turned out to be 94% and the IC50 is 617 nM.
For `CC(=O)Nc1ncc(CN2C[C@@H](Cc3cc(C)nc(C)c3)CC[C@@H]2C)s1` (racemic) [compound 165] the same measures were 100% and 2.24 nM.
As to `CC(=O)Nc1ncc(CN2C[C@@H](Cc3cc(C)nc(C)c3)CC[C@H]2C)s1` (racemic) [compound 166], under setting [1], the Emax amounted to 99% and the IC50 is 2.63 nM.
For the compound `CC(=O)Nc1ncc(CN2CCC[C@@H](Cc3cc(C)nc(C)c3)[C@H]2C)s1` (racemic) [compound 169], under setting [1], the Emax was 100% and the IC50 is 87.1 nM.
Turning to `CC(=O)Nc1ncc(CN2CCCC(c3cc(C)nc(C)c3)C2)s1` (single isomer, unassigned) [compound 131], under setting [1], the “Enzymatic Emax (%)” value was 85.38% and the IC50 is 977 nM.
For the compound `CC(=O)Nc1ncc(CN2CCC[C@@H](Cc3cc(C)nc(C)c3)[C@H]2C)s1` (single isomer, unassigned) [compound 170], under setting [1], the maximal effect (Emax) is 100% and the IC50 is 81.3 nM.
With `CC(=O)Nc1ncc(CN2CCC[C@H](Cc3cc(C)nc(C)c3)[C@@H]2C)s1` (single isomer, unassigned) [compound 171], under setting [1], the maximal response (Emax) was 52% and the IC50 is 9550 nM.
Regarding `CC(=O)Nc1ncc(S(=O)(=O)N2CCCC(Oc3cc(C)nc(C)c3)C2)s1` (stereo not drawn) [compound 1], under setting [2], the maximal effect (Emax) is 96.3% and the IC50 is 661 nM.
Taken in the same sequence, the figures for `CC(=O)Nc1ncc(S(=O)(=O)N2CCCC(Oc3ccnc(C)c3)C2)s1` (stereo not drawn) [compound 2] were 89% and 1050 nM.
With `CC(=O)Nc1ncc(S(=O)(=O)N2CCC(c3ccnc(C)c3)C2)s1` (stereo not drawn) [compound 3], the Emax under setting [2] is 15% and the Emax under setting [1] turned out to be 43%. The IC50 under setting [2] was above 10000 nM and the IC50 under setting [1] is above 10000 nM.
For `CC(=O)Nc1ncc(S(=O)(=O)N2CCC(c3ccc(C)nc3)C2)s1` (stereo not drawn) [compound 4], the Emax under setting [1] was found to be 50.5%.
On to `CC(=O)Nc1ncc(CN2CCCC(c3ccccc3)C2)s1` (stereo not drawn) [compound 5, reference compound], for which, under setting [2], the maximal effect (Emax) was determined as 102% and the IC50 was 141 nM.
On to `CC(=O)Nc1ncc(CN2CCC[C@@H](Nc3cc(C)nc(C)c3)C2)s1` [compound 8], for which, under setting [1], the Emax is 101% and the IC50 is 50.1 nM.
For `Cc1cc(N[C@@H]2CCCN(Cc3ccc4nccnc4c3)C2)cc(C)n1` [compound 10], under setting [1], the Emax is 85.6% and the IC50 was 1660 nM.
With `Cc1cc(N[C@H]2CCCN(Cc3ccc4nccnc4c3)C2)cc(C)n1` [compound 12], under setting [1], the maximal effect (Emax) was 92.9% and the IC50 is 676 nM.
Taken in the same sequence, the figures for `CC(=O)Nc1ncc(CN2CCCC(OCc3cc(C)nc(C)c3)C2)s1` (stereo not drawn) [compound 21] were 101% and 63.1 nM.
On to `CC(=O)Nc1ncc(CN2CC[C@@H](Nc3cc(C)nc(C)c3)C2)s1` [compound 22], for which, under setting [1], the maximal response (Emax) was determined as 99.8% and the IC50 was 214 nM.
In the case of `CC(=O)Nc1ncc(CN2CC[C@H](Nc3cc(C)nc(C)c3)C2)s1` [compound 23], under setting [1], the Emax worked out at 101% and the IC50 is 158 nM.
In the case of `CC(=O)Nc1ncc(CN2CCCC(N(C)c3cc(C)nc(C)c3)C2)s1` (stereo not drawn) [compound 32], under setting [1], the Emax amounted to 101% and the IC50 is 13.5 nM.
With `CC(=O)Nc1ncc(CN2CC[C@@H](Cc3ccc(C(F)(F)F)c(C)n3)C2)s1` [compound 36], under setting [1], the Emax came to 99% and the IC50 was 56.2 nM.
`CC(=O)Nc1ncc(CN2CCC(Cc3cccc(C(C)C)n3)C2)s1` (stereo not drawn) [compound 40]: under setting [1], the maximal effect (Emax) was found to be 99.7% and the IC50 was 7.76 nM.
With `COc1cc(C[C@H]2CCN(Cc3cnc(NC(C)=O)s3)C2)cc(C)n1` [compound 42], under setting [1], the maximum response (Emax) was determined as 101% and the IC50 is 8.32 nM.
Take `CC(=O)Nc1ncc(CN2CC[C@H](Cc3cncnc3)C2)s1` [compound 55]: under setting [1], the maximal effect (Emax) turned out to be 99.8% and the IC50 is 55 nM.
For `COc1ccc(C)nc1C[C@H]1CCN(Cc2cnc(NC(C)=O)s2)C1` [compound 57] the same measures were 100% and 45.7 nM.
Consider `CC(=O)Nc1ncc(CN2CCC(Cc3ccc(C(F)(F)F)nn3)C2)s1` (stereo not drawn) [compound 65], for which, under setting [1], the “Enzymatic Emax (%)” value is recorded as 100% and the “Enzymatic hOGA; pIC50” value is given as 7.28.
On to `CC(=O)Nc1ncc(CN2CCC(Cc3ccc(C(F)(F)F)cn3)C2)s1` (stereo not drawn) [compound 68], for which, under setting [1], the “Enzymatic Emax (%)” value turned out to be 101.5% and the “Enzymatic hOGA; pIC50” value came out at 7.10.
Turning to `Cc1cc(C[C@H]2CCN(Cc3ccc4sc(C)nc4c3)C2)cc(C)n1` [compound 82], under setting [1], the “Enzymatic Emax (%)” value is listed as 87.4% and the “Enzymatic hOGA; pIC50” value was determined as 5.91.
As to `Cc1cc(C[C@H]2CCN(Cc3ccc4scnc4c3)C2)cc(C)n1` [compound 83], under setting [1], the “Enzymatic Emax (%)” value is 87.8% and the “Enzymatic hOGA; pIC50” value amounted to 5.79.
As to `Cc1cc(C[C@H]2CCN(Cc3ccc4c(c3)OCO4)C2)cc(C)n1` [compound 99], under setting [1], the “Enzymatic Emax (%)” value is −6.5% and the “Enzymatic hOGA; pIC50” value is on record as below 5.
On to `Cc1cc(C[C@H]2CCN(Cc3ccc4c(c3)OCCO4)C2)cc(C)n1` [compound 101], for which, under setting [1], the “Enzymatic Emax (%)” value is 81.7% and the “Enzymatic hOGA; pIC50” value was 5.8.
Turning to `Cc1cc([C@@H]2CCCN([C@@H](C)c3ccc4sc(C)nc4c3)C2)cc(C)n1` [compound 116], under setting [1], the maximal response (Emax) amounted to 79.2% and the IC50 is 3470 nM.
`CC(=O)Nc1ncc(CN2CCCC(COc3cc(C)nc(C)c3)C2)[nH]1` (stereo not drawn) [compound 120]: under setting [1], the Emax came out at 91.9% and the IC50 is 1230 nM.
